Type in all cases: physicochemical
Data set [1] can be described thus: Concentration of astaxanthin in the aqueous supernatant after glass-bead wall breaking of P. rhodozyma (spectrophotometer). Particulars: water, 1 mm glass beads 500 g/L, 22° C., 150 rpm. How it is done:
Adding P. rhodozyma to 20 mL of water to obtain yeast suspensions with concentrations of 20 g/L, 50 g/L and 100 g/L (dry weight), adding glass beads with a particle size of 1 mm to the yeast suspensions to make the content of the glass beads in the yeast suspensions 500 g/L, and then shaking to break walls in a shaker at 22° C. at a stirring speed of 150 rpm for 48 h. After breaking the wall, centrifuging at 10000 rpm for 10 min, and then collecting the precipitate and supernatant. Extracting astaxanthin in the supernatant with acetone and back-extracting it with petroleum ether, extracting the astaxanthin in the precipitate with acetone, and then using a spectrophotometer to detect the content of astaxanthin in the supernatant and precipitate. Using the amount of astaxanthin extracted by the acid-heat treatment method as a control, i.e., regarding the amount of astaxanthin extracted by the acid-heat treatment method by default as the total amount of astaxanthin for the calculation of the astaxanthin extraction rate.
Adding P. rhodozyma to 20 mL of water to obtain a yeast suspension with a concentration of 20 g/L (dry weight), adding glass beads with a particle size of 1 mm to the yeast suspension to make the content of the glass beads in the yeast suspension 500 g/L, and then shaking to break walls in a shaker at 22° C. at a stirring speed of 150 rpm for 6 h, 24 h and 48 h, respectively. After breaking the wall, centrifuging at 10000 rpm for 10 min, and then collecting the precipitate and supernatant. Extracting astaxanthin in the supernatant with acetone and back-extracting it with petroleum ether, extracting the astaxanthin in the precipitate with acetone, and then using a spectrophotometer to detect the content of astaxanthin in the supernatant and precipitate. Using the amount of astaxanthin extracted by the acid-heat treatment method as a control, i.e., regarding the amount of astaxanthin extracted by the acid-heat treatment method by default as the total amount of astaxanthin for the calculation of the astaxanthin extraction rate.

Data set [2] can be described thus: Drug-loading rate (amount of pigment contained in each gram of the microcapsule powder). Particulars: Example 4 microcapsules. How it is done:
(§1) This example selected the following optimal proportion: Supernatant (V, mL):gelatin (W, g):porous starch (W, g)=400:15:6 (core material (W, g):wall material (W, g)=3.95:21); the microencapsulation temperature was 40° C., and the microencapsulation time was 2 h. The encapsulation rate was calculated by detecting the total amount of pigment in the microcapsule powder and the amount of pigment on the surface (refer to Gomez-Estaca J. Food Hydrocolloids, 2016, 61:155-162). The amount of pigment on the surface was obtained by directly adding acetone for extraction. The total amount of pigment in the microcapsule powder was obtained as follows: dissolving the microcapsule powder in distilled water, shaking and then adding acetone thereto, mixing uniformly and then centrifuging, using petroleum ether to back-extract the pigment, and taking the upper layer of pigment-petroleum ether to measure the absorbance A with a spectrophotometer; if the pigment in the lower layer of acetone was not extracted completely, petroleum ether was added repeatedly until the organic solvent in the lower layer was colorless. Drug-loading rate refers to the amount of pigment contained in each gram of the microcapsule powder.

The nature of data set [3]: Encapsulation rate of the microcapsule powder (total pigment vs pigment on the surface). Particulars: Example 4 microcapsules. How it is done: as §1

As for `CC1=C(/C=C/C(C)=C/C=C/C(C)=C/C=C/C=C(C)/C=C/C=C(C)/C=C/C2=C(C)C(=O)[C@@H](O)CC2(C)C)C(C)(C)C[C@H](O)C1=O` [astaxanthin], the “concentration of astaxanthin in the supernatant after the wall breaking” value in data set [1] (P. rhodozyma 20 g/L, 6 h) was 93.72 µg/mL; in data set [1] (P. rhodozyma 20 g/L, 24 h), 306.43 µg/mL; in data set [1] (P. rhodozyma 20 g/L, 48 h) it was 459.57 µg/mL; in data set [1] (P. rhodozyma 50 g/L, 48 h), 843.06 µg/mL; in data set [1] (P. rhodozyma 100 g/L, 48 h), 1043.17 µg/mL. The “drug-loading rate of astaxanthin” value in data set [2] (concentration of yeast 20 g/L) was determined as 3.45 mg/g; in data set [2] (concentration of yeast 50 g/L) it was 6.79 mg/g; in data set [2] (concentration of yeast 100 g/L), 10.42 mg/g. Also, the “encapsulation rate of astaxanthin” value in data set [3] (concentration of yeast 20 g/L) is listed as 87.8%; in data set [3] (concentration of yeast 50 g/L), 78.69%; in data set [3] (concentration of yeast 100 g/L) it was 75.62%.
